For data set [1], the system named is Balb/C mice. Briefly: Prevention of drug-induced (melphalan) toxic death. The data set is classed as in vivo, mouse. Conditions: melphalan 100 mg/kg i.p. alone. How it is done:
The effect of PyEx upon myelocyte stimulation was also observed in vivo as prevention of drug-induced myelosuppression. […] A separate group received melphalan (100 mg/kg, i.p.) and PyEx-1 (10 μg/mouse, subcutaneously). PyEx-1 was given immediately after or as late as 18 hours after melphalan administration, and every 48 hours thereafter.

Data set [2] has as its system murine bone marrow cells. Briefly: Bone marrow activation assay (flow cytometry, percent of cells activated). It counts as cell-based, mouse. Conditions: 3 mM. How it is done:
Bone marrow was flushed from the femurs of Balb/C mice with RPMI medium. Cells were collected by centrifugation and the pellet treated with 1 mL of red cell lysis buffer (as described above) for five minutes at 25° C., followed by dilution with 12 mL of RPMI media. Cells were washed by two cycles of centrifugation and resuspension in RPMI. On the final wash, cells were counted using a hemocytometer and the final pellet was resuspended to 4×10^6 cells/mL with RPMI media for use in activation assays, which were quantitated by flow cytometric analysis (described below).
Cells (200 μL, prepared as described above) were collected after gentle trituration to resuspend cells. Each aliquot was diluted with 1 mL PBS, centrifuged to pellet the cells, and the supernatant liquid was removed. The washed cells were sequentially stained in the dark at 4° C. for 15 minutes with anti-CD16/32 to prevent non-specific labeling, then for 45 minutes with either anti-Mac-1-FITC×anti-Mac-1-PE or with Gr-1-FITC×Mac-1-PE. Cells were washed once at 4° C. with 1 mL of PBS and then resuspended in 1 mL of PBS. Human cells were labeled with anti-Mac-1 as above or with anti-Mac-1-FITC×anti-CD14. […] Approximately 15-20×10^3 cells were counted for each analysis. Percent of cells activated was determined as: […]

The subject of data set [3] is bone marrow cells. Put plainly: Bone marrow cell viability (propidium iodide exclusion). The data set is classed as cell-based. As to conditions: mouse, 3 mM. How it is done:
Cells (200 μL, prepared as described above) were collected after gentle trituration to resuspend cells. Each aliquot was diluted with 1 mL PBS, centrifuged to pellet the cells, and the supernatant liquid was removed. The washed cells were sequentially stained in the dark at 4° C. for 15 minutes with anti-CD16/32 to prevent non-specific labeling, then for 45 minutes with either anti-Mac-1-FITC×anti-Mac-1-PE or with Gr-1-FITC×Mac-1-PE. Cells were washed once at 4° C. with 1 mL of PBS and then resuspended in 1 mL of PBS. Human cells were labeled with anti-Mac-1 as above or with anti-Mac-1-FITC×anti-CD14. A Coulter EPICS-XL™ flow cytometer was used to enumerate dual, positively-staining control sub-populations and detection of nascent stimulated sub-populations. Activated sub-populations, which labeled with more intensity along the y-axis in Gr-I-FITC×Mac-1-PE, were designated as Mac-1^+hi. Control unactivated cells that also stained positively in both dimensions were designated, Mac-1^+lo. Dead cells were eliminated from analysis by prior staining with propidium iodide. Approximately 15-20×10^3 cells were counted for each analysis. Percent of cells activated was determined as:
Over 15×10^3 cells were analyzed for each sample. Bone marrow cell viability among all samples including the untreated control was 70-76% as determined by propidium iodide exclusion.

Data set [4] concerns Balb/C mice. Briefly: In vivo neutropenia model (sub-lethal cyclophosphamide). The arrangement: species or system mouse. Conditions: day five. The method, then:
Eighteen to twenty-four hours later (day 1), control mice received an injection of saline and the PyEx group received a single dose of PyEx (20 μg/mouse). Mice were bled sequentially via the retro-orbital sinus or tail vein at various times thereafter. Blood was collected in heparinized capillary tubes.
For determination of total versus white cells, blood was diluted into Isoton II (Beckman-Coulter, Fullerton, Calif.). Total cells and white cells were counted using a Model ZM Coulter counter (Beckman-Coulter, Fullerton, Calif.). White cell counts were determined following treatment of whole blood with a RBC lytic reagent (Zap-Oglobin, Beckman-Coulter, Fullerton, Calif.). Blood granulocytes and myelocytes were quantitated by means of an EPICS-XL™ flow cytometry after lysis of red cells.
To more clearly determine what populations of cells were stimulated by treatment with PyEx, in a similar experiment blood and bone marrow cells were collected and analyzed for total blood granulocytes and myelocytes. […] PyEx-1 (20 μg/mouse) was given to mice 24 hours after administration of CP. Blood from PyEx-1 treated experimental and saline treated control mice was collected with heparinized capillary tubes five days after CP administration. Following lysis of red cells, the remaining cells were analyzed by means of an EPICS-XL™ flow cytometer (Beckman-Coulter, Fullerton, Calif.). […]

A short description of data set [5]: Physical analysis: stability of the immunostimulatory/mitogenic activity. As to conditions: proteinase K 50 μg/ml, 10 mM Tris pH 8.0, 10 mM EDTA, 0.5% SDS, 56° C., 30 minutes. The data set is classed as physicochemical. How it is done:
A mitogenic assay was used as a measure of immunostimulation. For the mitogen assay, isolated cells were diluted to 1.5×10^6 cells/mL. Aliquots of cells (200 μL/well) were incubated in sterile 96-well plates for 24 to 48 hours prior to the addition of 1 μCi/well of [^3H]thymidine. Radiolabeled DNA was collected on glass fiber filters by means of an Inotech cell harvester (Rockville, Md.) and associated radioactivity was determined by means of an Inotech radiometric instrument or by scintillation counting of individual filters. TLF-D, a proprietary reagent, was utilized at 10 μg/ml to amplify the mitogenic activity of Pyrularia extract (PyEx) in a synergistic fashion.

Data set [6] relates to human bone marrow cells. Put plainly: Activation of human bone marrow (Mac-1 x CD14 flow cytometry). As to conditions: 5 ng/mL, fresh marrow from normal donor. The data set is classed as cell-based. How it is done:
Human bone marrow was provided by the Bone Marrow Transplantation Unit, University of Utah. Experiments were initiated upon obtaining fresh marrow from normal donors. Whole marrow was treated as described above for murine marrow samples. Following incubation for 24 to 36 hours with PyEx or other agents as described, cells were stained with anti-Mac-1-FITC×anti-CD14-PE. Cells were analyzed using a Coulter EPICS-XL™ flow cytometer (Beckman-Coulter, Fullerton, Calif.). Activated populations were identified by positive staining with Mac-1×CD14 (designated Mac-1^+, CD14^+).

As for `N[C@@H](Cc1ccc(N(CCCl)CCCl)cc1)C(=O)O` [Melphalan, melphalan], the results for the “Average time of death” value in data set [1] and in data set [1] (listed as melphalan) were “day 7” and “eight”, respectively. The “Drug related deaths/# in group” value in data set [1] is given as 3/6.
Regarding `CC(=O)CCCCn1c(=O)c2c(ncn2C)n(C)c1=O` [pentoxifylline], in data set [2], the Activation came out at 7.54%. In data set [3], the Viability came out at 61.5%.
In the case of `O=P1(N(CCCl)CCCl)NCCCO1` (stereo not drawn) [Cyclophosphamide], in data set [4] (CP 200 mg/kg alone), the “total WBC restoration, % of the difference between the nadir value and the control value” was 45%. The “Percentage of Granulocytes in Control” value in data set [4] (cyclophosphamide 200 mg/kg alone, blood) stood at 1%.
Regarding concanavalin A, the “effect of proteinase K treatment on mitogenic activity” value in data set [5] is reported as “completely inactivate”.
With “rhGM-CSF: Recombinant human granulocyte macrophage-colony stimulating factor”, in data set [6], the “activated sub-population (Mac-1+, CD14+), % of total cells” value is listed as 9%.
